Assay results published in the supplement of paper PMC10307832.

Tests used:
Assay in all cases: relative viability (nuclei count vs DMSO), 5 days (fraction); higher = more cells survive
LC-2-ad = tested on: LC-2-ad
Outline: (§1)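 Cells from lung cancer lines were seeded into 1536-well plates and, one day later, dosed by pin tool. Treatments were either a single drug or a fixed dose of an anchor drug with five library-drug doses (not always all listed) in √10 steps. After 5 days, nuclei were stained in a one-step fixation (final 0.05% Triton X-100, 1% formaldehyde, 1 ug/ml Hoechst) and counted on 4× images, and relative viability is the treated-to-vehicle nuclei ratio, as the median of duplicate plates.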

NCI-H522 = tested on: NCI-H522
Outline: as §1

SK-LU-1 = tested on: SK-LU-1
Outline: as §1

NCI-H358 = tested on: NCI-H358
Outline: as §1

NCI-H2228 = tested on: NCI-H2228
Outline: as §1

RERF-LC-KJ = tested on: RERF-LC-KJ
Outline: as §1

NCI-H647 = tested on: NCI-H647
Outline: as §1

NCI-H1915 = tested on: NCI-H1915
Outline: as §1

HCC-15 = tested on: HCC-15
Outline: as §1

NCI-H1755 = tested on: NCI-H1755
Outline: as §1

HCC-78 = tested on: HCC-78
Outline: as §1

NCI-H460 = tested on: NCI-H460
Outline: as §1

SW 1573 = tested on: SW 1573
Outline: as §1

NCI-H1975 = tested on: NCI-H1975
Outline: as §1

A-427 = tested on: A-427
Outline: as §1

PC-3 [JPC-3] = tested on: PC-3 [JPC-3]
Outline: as §1

NCI-H2342 = tested on: NCI-H2342
Outline: as §1

LOU-NH91 = tested on: LOU-NH91
Outline: as §1

NCI-H1734 = tested on: NCI-H1734
Outline: as §1

LXF-289 = tested on: LXF-289
Outline: as §1

HOP-62 = tested on: HOP-62
Outline: as §1

NCI-H2347 = tested on: NCI-H2347
Outline: as §1

NCI-H2126 = tested on: NCI-H2126
Outline: as §1

C[C@@H]1CN(CC(=O)Nc2ccc3c(c2)Cc2cccc(-c4cc(=O)cc(N5CCOCC5)o4)c2S3)C[C@H](C)O1 + O=C(CCCCCCC(=O)Nc1ccccc1)NO [Vorinostat] (partner 1 µM)
relative viability (LC-2-ad; first compound 0.04 µM): 0.639 | relative viability (LC-2-ad; first compound 0.1265 µM): 0.679 | relative viability (LC-2-ad; first compound 0.4 µM): 0.712 | relative viability (LC-2-ad; first compound 4 µM): 0.606 | relative viability (NCI-H522; first compound 0.04 µM): 0.539 | relative viability (NCI-H522; first compound 0.1265 µM): 0.696 | relative viability (NCI-H522; first compound 0.4 µM): 0.876 | relative viability (NCI-H522; first compound 4 µM): 0.766 | relative viability (SK-LU-1; first compound 0.04 µM): 0.765 | relative viability (SK-LU-1; first compound 0.1265 µM): 0.831 | relative viability (SK-LU-1; first compound 0.4 µM): 0.811 | relative viability (SK-LU-1; first compound 4 µM): 0.568 | relative viability (NCI-H358; first compound 0.04 µM): 0.724 | relative viability (NCI-H358; first compound 0.1265 µM): 0.589 | relative viability (NCI-H358; first compound 0.4 µM): 0.687 | relative viability (NCI-H358; first compound 4 µM): 0.261 | relative viability (NCI-H2228; first compound 0.04 µM): 0.667 | relative viability (NCI-H2228; first compound 0.1265 µM): 0.589 | relative viability (NCI-H2228; first compound 0.4 µM): 0.852 | relative viability (NCI-H2228; first compound 4 µM): 0.569 | relative viability (RERF-LC-KJ; first compound 0.04 µM): 0.648 | relative viability (RERF-LC-KJ; first compound 0.1265 µM): 0.655 | relative viability (RERF-LC-KJ; first compound 0.4 µM): 0.738 | relative viability (RERF-LC-KJ; first compound 4 µM): 0.543 | relative viability (NCI-H647; first compound 0.04 µM): 0.547 | relative viability (NCI-H647; first compound 0.1265 µM): 0.491 | relative viability (NCI-H647; first compound 0.4 µM): 0.665 | relative viability (NCI-H647; first compound 4 µM): 0.416 | relative viability (NCI-H1915; first compound 0.04 µM): 0.434 | relative viability (NCI-H1915; first compound 0.1265 µM): 0.538 | relative viability (NCI-H1915; first compound 0.4 µM): 0.537 | relative viability (NCI-H1915; first compound 4 µM): 0.421 | relative viability (HCC-15; first compound 0.04 µM): 0.825 | relative viability (HCC-15; first compound 0.1265 µM): 0.769 | relative viability (HCC-15; first compound 0.4 µM): 0.729 | relative viability (HCC-15; first compound 4 µM): 0.663 | relative viability (NCI-H1755; first compound 0.04 µM): 0.759 | relative viability (NCI-H1755; first compound 0.1265 µM): 0.854 | relative viability (NCI-H1755; first compound 0.4 µM): 0.729 | relative viability (NCI-H1755; first compound 4 µM): 0.87 | relative viability (HCC-78; first compound 0.04 µM): 0.455 | relative viability (HCC-78; first compound 0.1265 µM): 0.417 | relative viability (HCC-78; first compound 0.4 µM): 0.46 | relative viability (HCC-78; first compound 4 µM): 0.4 | relative viability (NCI-H460; first compound 0.04 µM): 0.69 | relative viability (NCI-H460; first compound 0.1265 µM): 0.738 | relative viability (NCI-H460; first compound 0.4 µM): 0.704 | relative viability (NCI-H460; first compound 4 µM): 0.203 | relative viability (SW 1573; first compound 0.04 µM): 0.551 | relative viability (SW 1573; first compound 0.1265 µM): 0.989 | relative viability (SW 1573; first compound 0.4 µM): 0.909 | relative viability (SW 1573; first compound 4 µM): 0.769 | relative viability (NCI-H1975; first compound 0.04 µM): 0.68 | relative viability (NCI-H1975; first compound 0.1265 µM): 0.717 | relative viability (NCI-H1975; first compound 0.4 µM): 0.61 | relative viability (NCI-H1975; first compound 4 µM): 0.536 | relative viability (A-427; first compound 0.04 µM): 0.853 | relative viability (A-427; first compound 0.1265 µM): 0.92 | relative viability (A-427; first compound 0.4 µM): 0.908 | relative viability (A-427; first compound 4 µM): 0.779 | relative viability (PC-3 [JPC-3]; first compound 0.04 µM): 0.822 | relative viability (PC-3 [JPC-3]; first compound 0.1265 µM): 0.792 | relative viability (PC-3 [JPC-3]; first compound 0.4 µM): 0.821 | relative viability (PC-3 [JPC-3]; first compound 4 µM): 0.821 | relative viability (NCI-H2342; first compound 0.04 µM): 0.609 | relative viability (NCI-H2342; first compound 0.1265 µM): 0.652 | relative viability (NCI-H2342; first compound 0.4 µM): 0.668 | relative viability (NCI-H2342; first compound 4 µM): 0.703 | relative viability (LOU-NH91; first compound 0.04 µM): 0.611 | relative viability (LOU-NH91; first compound 0.1265 µM): 0.945 | relative viability (LOU-NH91; first compound 0.4 µM): 0.847 | relative viability (LOU-NH91; first compound 4 µM): 0.785 | relative viability (NCI-H1734; first compound 0.04 µM): 0.602 | relative viability (NCI-H1734; first compound 0.1265 µM): 0.768 | relative viability (NCI-H1734; first compound 0.4 µM): 0.812 | relative viability (NCI-H1734; first compound 4 µM): 0.901 | relative viability (LXF-289; first compound 0.04 µM): 0.534 | relative viability (LXF-289; first compound 0.1265 µM): 0.794 | relative viability (LXF-289; first compound 0.4 µM): 0.88 | relative viability (LXF-289; first compound 4 µM): 0.733 | relative viability (HOP-62; first compound 0.04 µM): 0.477 | relative viability (HOP-62; first compound 0.1265 µM): 0.648 | relative viability (HOP-62; first compound 0.4 µM): 0.687 | relative viability (HOP-62; first compound 4 µM): 0.509 | relative viability (NCI-H2347; first compound 0.04 µM): 0.564 | relative viability (NCI-H2347; first compound 0.1265 µM): 0.623 | relative viability (NCI-H2347; first compound 0.4 µM): 0.562 | relative viability (NCI-H2347; first compound 4 µM): 0.533 | relative viability (NCI-H2126; first compound 0.04 µM): 0.853 | relative viability (NCI-H2126; first compound 0.1265 µM): 0.768 | relative viability (NCI-H2126; first compound 0.4 µM): 0.759 | relative viability (NCI-H2126; first compound 4 µM): 0.701
